Test results: paper PMC9680624 (RSC Advances, 2022)
Converted amounts (≈) assume the structure as drawn.

Columns and labels:
PC3 = assay: In vitro anti-proliferative activity, MTT assay; type: cell-based; details: Homo sapiens, PC-3, 24 h, read-out: In vitro cytotoxicity IC50 PC3
MCF-7 = assay: In vitro anti-proliferative activity, MTT assay; type: cell-based; details: Homo sapiens, MCF7, 24 h, read-out: In vitro cytotoxicity IC50 MCF-7
HepG-2 = assay: In vitro anti-proliferative activity, MTT assay; type: cell-based; details: Homo sapiens, HepG2, 24 h, read-out: In vitro cytotoxicity IC50 HepG-2
caspase-8 = assay: Caspase-8 level in HepG-2 cell supernatant, ELISA; type: cell-based, human; details: for increase of caspase-8 level: HepG-2 cells, versus control cells; for CASPASE-8 level: HepG-2 supernatant, ELISA, 10 μM, 72 h, control 1.08
NF-κB P65 = NF-κB P65 level in HepG-2 cell lysate, ELISA; type: cell-based, human; details: 72 h, control 278.1
VEGF = VEGF level in HepG-2 cell supernatant, ELISA; type: cell-based, human; details: HepG-2 supernatant, 10 μM, 72 h, control 432.5
[1] = Cytotoxicity against Vero cells, MTT assay; type: cell-based; details: African green monkey, Vero cells (normal, non-cancerous cell line)
Vero cells = assay: Cytotoxicity against Vero cells, MTT assay; type: cell-based; details: for Selectivity index (SI) HepG-2: SI = cytotoxicity against Vero cells/cytotoxicity against HepG-2 cell line; for Selectivity index (SI) PC3: SI = cytotoxicity against Vero cells/cytotoxicity against PC3 cell line
TNF-α = TNF-α level in HepG-2 cell supernatant, ELISA; type: cell-based, human; details: HepG-2 supernatant, 10 μM, 72 h, control 162.5

SMILES	IC50 (PC3)	IC50 (MCF-7)	IC50 (HepG-2)	increase of caspase-8 level (caspase-8)	CASPASE-8 level (caspase-8)	NFκB P65 level (NF-κB P65)	VEGF level (VEGF)	IC50 [1]	Selectivity index (SI) HepG-2 (Vero cells)	Selectivity index (SI) MCF-7 (Vero cells; SI = cytotoxicity against Vero cells/cytotoxicity against MCF-7 cell line)	Selectivity index (SI) PC3 (Vero cells)	TNF-α level (TNF-α)
O=C1CCC(Nc2nc(Cl)nc3cccc(Cl)c23)C(=O)N1 (stereo not shown) [Compound 13a, 3-((2,5-Dichloroquinazolin-4-yl)amino)piperidine-2,6-dione]	54.3 ± 3 µg/mL (≈ 167 µM)	35.3 ± 2.4 µg/mL (≈ 109 µM)	46.3 ± 3.1 µg/mL (≈ 142 µM)									
Fc1ccc(Nc2nc(Cl)nc3cccc(Cl)c23)cc1Cl [Compound 11a, 2,5-Dichloro-N-(3-chloro-4-fluorophenyl)quinazolin-4-amine]	91.3 ± 4.9 µg/mL (≈ 266 µM)	86.1 ± 4.4 µg/mL (≈ 251 µM)	77.2 ± 4.2 µg/mL (≈ 225 µM)									
O=S(=O)(NNc1nnc(Cl)c2ccccc12)c1ccccc1 [Compound 24c, N′-(4-Chlorophthalazin-1-yl)benzenesulfonohydrazide]	14.9 ± 1.1 µg/mL (≈ 44.6 µM)	8.12 ± 0.7 µg/mL (≈ 24.3 µM)	7.96 ± 0.5 µg/mL (≈ 23.8 µM)									
Cc1ccc(S(=O)(=O)NNc2nnc(Cl)c3ccccc23)cc1 [Compound 24a, N′-(4-Chlorophthalazin-1-yl)-4-methylbenzenesulfonohydrazide]	8.63 ± 0.6 µg/mL (≈ 24.7 µM)	6.07 ± 0.7 µg/mL (≈ 17.4 µM)	3.87 ± 0.2 µg/mL (≈ 11.1 µM)									
Fc1ccc(Nc2nc(Cl)nc3ccc(Cl)cc23)cc1Cl [Compound 11b, 2,6-Dichloro-N-(3-chloro-4-fluorophenyl)quinazolin-4-amine]	51.2 ± 3.5 µg/mL (≈ 149 µM)	45.9 ± 3 µg/mL (≈ 134 µM)	38.7 ± 2.8 µg/mL (≈ 113 µM)									
CNc1nc(Nc2ccc(F)c(Cl)c2)c2ccccc2n1 [Compound 7a, N ^4-(3-Chloro-4-fluorophenyl)-N^2-methylquinazoline-2,4-diamine]	47.2 ± 2.8 µg/mL (≈ 156 µM)	28.1 ± 2.1 µg/mL (≈ 92.9 µM)	40.5 ± 2.8 µg/mL (≈ 134 µM)									
O=S(=O)(NNc1nc(Cl)nc2cccc(Cl)c12)c1ccc(F)cc1 [Compound 19b, N′-(2,5-Dichloroquinazolin-4-yl)-4-fluorobenzenesulfonohydrazide]	32.7 ± 2.3 µg/mL (≈ 84.5 µM)	20.5 ± 1.5 µg/mL (≈ 52.9 µM)	28.9 ± 2.2 µg/mL (≈ 74.7 µM)									
NC(=O)NNc1nc(Cl)nc2ccc(Cl)cc12 [Compound 15b, 2-(2,6-Dichloroquinazolin-4-yl)hydrazine-1-carboxamide]	13.8 ± 1.2 µg/mL (≈ 50.7 µM)	9.87 ± 0.9 µg/mL (≈ 36.3 µM)	16.2 ± 1.4 µg/mL (≈ 59.5 µM)									
CCNc1nc(Nc2ccc(F)c(Cl)c2)c2ccccc2n1 [Compound 7b, N ^4-(3-Chloro-4-fluorophenyl)-N^2-ethylquinazoline-2,4-diamine]	15.5 ± 1.3 µg/mL (≈ 48.9 µM)	9.45 ± 0.9 µg/mL (≈ 29.8 µM)	11.7 ± 0.8 µg/mL (≈ 36.9 µM)	threefold increase	3.2 ng mL^−1	113.7 pg/mL	218.5 pg/mL	163.6 ± 1.12 µg/mL (≈ 516 µM)	13.78	17.04	10.40	79.3 pg/mL
Cc1ccc(S(=O)(=O)NNc2nc(Cl)nc3cccc(Cl)c23)cc1 [Compound 19a, N′-(2,5-Dichloroquinazolin-4-yl)-4-methylbenzenesulfonohydrazide]	21.5 ± 1.6 µg/mL (≈ 56 µM)	12.8 ± 1 µg/mL (≈ 33.3 µM)	19.1 ± 1.5 µg/mL (≈ 49.8 µM)									
O=C1CCC(Nc2nc(Cl)nc3ccc(Cl)cc23)C(=O)N1 (stereo not shown) [Compound 13b, 3-((2,6-Dichloroquinazolin-4-yl)amino)piperidine-2,6-dione]	38.4 ± 3.1 µg/mL (≈ 118 µM)	29.3 ± 2.3 µg/mL (≈ 90.2 µM)	59 ± 3.3 µg/mL (≈ 181 µM)									
NC(=O)NNc1nc(Cl)nc2cccc(Cl)c12 [Compound 15a, 2-(2,5-Dichloroquinazolin-4-yl)hydrazine-1-carboxamide]	26.1 ± 2 µg/mL (≈ 95.8 µM)	17.3 ± 1.3 µg/mL (≈ 63.7 µM)	24.5 ± 2 µg/mL (≈ 90.1 µM)									
Fc1ccc(Nc2nc(Cl)nc3ccccc23)cc1Cl [Compound 6, 2-Chloro-N-(3-chloro-4-fluorophenyl)quinazolin-4-amine]	85 ± 4.7 µg/mL (≈ 276 µM)	81.5 ± 4.2 µg/mL (≈ 265 µM)	74.8 ± 4.1 µg/mL (≈ 243 µM)									
O=C1CCC(N2C(=O)c3ccccc3C2=O)C(=O)N1 (stereo not shown) [Thalidomide, thalidomide, reference compound]	16.9 ± 0.7 µg/mL (≈ 65.3 µM)	14.6 ± 0.57 µg/mL (≈ 56.5 µM)	11.3 ± 0.54 µg/mL (≈ 43.6 µM)	8 folds	8.3 ng mL^−1	110.5 pg/mL	153.2 pg/mL					53.1 pg/mL
O=S(=O)(NNc1nnc(Cl)c2ccccc12)c1ccc(F)cc1 [Compound 24b, N′-(4-Chlorophthalazin-1-yl)-4-fluorobenzenesulfonohydrazide]	4.11 ± 0.3 µg/mL (≈ 11.7 µM)	5.8 ± 0.4 µg/mL (≈ 16.4 µM)	2.51 ± 0.1 µg/mL (≈ 7.11 µM)	about 7 folds	6.9 ng mL^−1	76.5 pg/mL	185.3 pg/mL	161.1 ± 1.42 µg/mL (≈ 457 µM)	65.18		39.80	82.5 pg/mL
